Source: ChEMBL document CHEMBL1201862, “PubChem BioAssay data set” (2004)
Where a name gives a salt, the structure may show the parent alone.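 All cell lines were grown in 96-well plates and treated with compound for 48 hours. GI50 is the concentration that inhibits growth by half.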 Activity calls are given as the source filed them. Cut-off read from the data, not from the text of the source: active = GI50 up to about 1.1 µM and inactive = higher.

Experiments:
Assay in all cases: NCI-60 cell line screen, 48 h
ACHN = tested on: ACHN
TK-10 = tested on: TK-10
SW-620 = tested on: SW-620
M14 = tested on: M14
Hs-578T = tested on: Hs-578T
HOP-92 = tested on: HOP-92
Malme-3M = tested on: Malme-3M
KM12 = tested on: KM12
HOP-62 = tested on: HOP-62
SF-539 = tested on: SF-539
COLO 205 = tested on: COLO 205
NCI/ADR-RES = tested on: NCI/ADR-RES
786-0 = tested on: 786-0
U-251 = tested on: U-251
CCRF-CEM = tested on: CCRF-CEM
A549 = tested on: A549
OVCAR-5 = tested on: OVCAR-5
SK-MEL-5 = tested on: SK-MEL-5
UACC-62 = tested on: UACC-62
SK-OV-3 = tested on: SK-OV-3

SMILES	GI50 (ACHN)	GI50 (TK-10)	GI50 (SW-620)	GI50 (M14)	GI50 (Hs-578T)	GI50 (HOP-92)	GI50 (Malme-3M)	GI50 (KM12)	GI50 (HOP-62)	GI50 (SF-539)	GI50 (COLO 205)	GI50 (NCI/ADR-RES)	GI50 (786-0)	GI50 (U-251)	GI50 (CCRF-CEM)	GI50 (A549)	GI50 (OVCAR-5)	GI50 (SK-MEL-5)	GI50 (UACC-62)	GI50 (SK-OV-3)
CCCCCC(O)C(O)CCC[C@H](O)[C@H]1CC[C@H]([C@H]2CC[C@H]([C@H](O)CCCCCCCCCCCCC3=C[C@H](C)OC3=O)O2)O1 (some centres not stated)	1.59 µM (inactive)	2.86 µM (inactive)	3.44 µM (inactive)	3.49 µM (inactive)	2.91 µM (inactive)	23.4 µM (inactive)	11.9 µM (inactive)	2.21 µM (inactive)	5.2 µM (inactive)	5.7 µM (inactive)	3.98 µM (inactive)	0.853 µM (active)	3.84 µM (inactive)	3.73 µM (inactive)	1.09 µM (active)	2.21 µM (inactive)	15.7 µM (inactive)	1.22 µM (inactive)	1.71 µM (inactive)	
O=C(O)/C=C/C(=O)O [FUMARIC ACID]	> 100 µM (inactive)	> 100 µM (inactive)	> 100 µM (inactive)	> 100 µM (inactive)	> 100 µM (inactive)	> 100 µM (inactive)	> 100 µM (inactive)	> 100 µM (inactive)	> 100 µM (inactive)	> 100 µM (inactive)	> 100 µM (inactive)	> 100 µM (inactive)	> 100 µM (inactive)	> 100 µM (inactive)	> 100 µM (inactive)	> 100 µM (inactive)	> 100 µM (inactive)	> 100 µM (inactive)		
O=C(O)CCCCC1CCSS1 (stereo not drawn) [LIPOIC ACID, ALPHA]	> 100 µM (inactive)	> 100 µM (inactive)	> 100 µM (inactive)	77.1 µM (inactive)	> 100 µM (inactive)	30 µM (inactive)	43.1 µM (inactive)	> 100 µM (inactive)	> 100 µM (inactive)	> 100 µM (inactive)	> 100 µM (inactive)	> 100 µM (inactive)	> 100 µM (inactive)	> 100 µM (inactive)	> 100 µM (inactive)	> 100 µM (inactive)	> 100 µM (inactive)	> 100 µM (inactive)		
O=C1C=CC2CCC1C2 (configuration not stated)	40.3 µM (inactive)	66.1 µM (inactive)	32.1 µM (inactive)	27.4 µM (inactive)	28.6 µM (inactive)		14.6 µM (inactive)	32.4 µM (inactive)	43.1 µM (inactive)	34.7 µM (inactive)	33.7 µM (inactive)	22.4 µM (inactive)	40.9 µM (inactive)	28.8 µM (inactive)	28.4 µM (inactive)	40.6 µM (inactive)	26.2 µM (inactive)	28.6 µM (inactive)	19.2 µM (inactive)	24.4 µM (inactive)
CN(C)C(=S)SCC(=O)Nc1ccccc1	> 100 µM (inactive)		> 100 µM (inactive)	> 100 µM (inactive)	> 100 µM (inactive)	> 100 µM (inactive)	> 100 µM (inactive)	> 100 µM (inactive)	> 100 µM (inactive)		> 100 µM (inactive)	> 100 µM (inactive)	> 100 µM (inactive)	> 100 µM (inactive)	> 100 µM (inactive)	> 100 µM (inactive)	> 100 µM (inactive)	> 100 µM (inactive)	> 100 µM (inactive)	> 100 µM (inactive)
COc1cc(C(=O)/C=C/c2ccc(OCCSCCCCCCCCCCSCCOc3ccc(/C=C/C(=O)c4cc(OC)c(OC)c(OC)c4)cc3)cc2)cc(OC)c1OC	> 100 µM (inactive)	> 100 µM (inactive)	> 100 µM (inactive)	> 100 µM (inactive)	> 100 µM (inactive)	> 100 µM (inactive)	> 100 µM (inactive)	> 100 µM (inactive)	> 100 µM (inactive)	> 100 µM (inactive)	> 100 µM (inactive)	> 100 µM (inactive)	> 100 µM (inactive)	> 100 µM (inactive)	> 100 µM (inactive)	> 100 µM (inactive)	> 100 µM (inactive)	> 100 µM (inactive)	> 100 µM (inactive)	
C=CCOc1ccc(C(=N/NC(=O)c2ccccc2)/N=N/c2ccccc2)cc1OC	> 100 µM (inactive)	> 100 µM (inactive)	> 100 µM (inactive)	> 100 µM (inactive)	70.8 µM (inactive)	30.1 µM (inactive)	> 100 µM (inactive)	54.2 µM (inactive)	> 100 µM (inactive)	> 100 µM (inactive)	55 µM (inactive)	84.3 µM (inactive)	> 100 µM (inactive)	79.4 µM (inactive)	36.6 µM (inactive)	> 100 µM (inactive)	> 100 µM (inactive)	50.5 µM (inactive)	71.1 µM (inactive)	
C=CCOc1ccc2c(C)cc(=O)oc2c1C	51.8 µM (inactive)		67 µM (inactive)	46.5 µM (inactive)	26.9 µM (inactive)	54.3 µM (inactive)	> 100 µM (inactive)	59.7 µM (inactive)	> 100 µM (inactive)	41.2 µM (inactive)	44.3 µM (inactive)	46.8 µM (inactive)	84.9 µM (inactive)	54.2 µM (inactive)	45.4 µM (inactive)	50.7 µM (inactive)	> 100 µM (inactive)	32.4 µM (inactive)	82.6 µM (inactive)	
CCN(CC)CCNc1ccc(C)c2sc3ccccc3c(=O)c12 [LUCANTHONE HYDROCHLORIDE]	3.54 µM (inactive)	3.72 µM (inactive)	1.76 µM (inactive)	1.75 µM (inactive)	2.15 µM (inactive)		3.84 µM (inactive)	3.09 µM (inactive)	6.5 µM (inactive)	2.75 µM (inactive)	1.67 µM (inactive)	4.3 µM (inactive)	3.02 µM (inactive)	2.33 µM (inactive)	1.91 µM (inactive)	2.61 µM (inactive)	3.05 µM (inactive)	2.17 µM (inactive)	1.84 µM (inactive)	6.71 µM (inactive)
C=C1C(=O)[C@]23[C@H](O)[C@H]1CC[C@H]2[C@@]12CO[C@@]3(O)C[C@@H]1C(C)(C)CC[C@@H]2O [MEGATHYRIN A]	4.84 µM (inactive)	9.75 µM (inactive)	5.5 µM (inactive)		7.29 µM (inactive)	> 25 µM (inactive)	6.71 µM (inactive)	6.22 µM (inactive)	> 25 µM (inactive)	6.79 µM (inactive)	3.98 µM (inactive)	9.66 µM (inactive)	9.57 µM (inactive)		7.59 µM (inactive)	16.2 µM (inactive)	> 25 µM (inactive)	13 µM (inactive)		
CC(=O)N1CC[N+](C)(CCCCN2c3ccccc3Sc3cc(N=[N+]=[N-])ccc32)CC1	> 100 µM (inactive)	> 100 µM (inactive)	> 100 µM (inactive)	> 100 µM (inactive)	75.9 µM (inactive)		> 100 µM (inactive)	> 100 µM (inactive)	> 100 µM (inactive)	> 100 µM (inactive)	> 100 µM (inactive)	> 100 µM (inactive)	> 100 µM (inactive)	> 100 µM (inactive)	> 100 µM (inactive)	> 100 µM (inactive)	> 100 µM (inactive)	62.8 µM (inactive)	> 100 µM (inactive)	> 100 µM (inactive)
